{
  "source": "patent US12221422B2",
  "about": "“Compounds and their use for the treatment of alpha1-antitrypsin deficiency” (CENTESSA PHARMACEUTICALS (UK) LIMITED, priority 2018, dated 2025)",
  "key": {"[1]": {"experiment": "Pharmacokinetics in rats", "format": "in vivo", "conditions": "rat, whole blood, Sprague Dawley rats", "procedure": "Compounds were administered to Sprague Dawley rats intravenously (2 mg/kg) or orally (10 mg/kg) by gavage. Whole blood diluted with water was prepared from these dosed animals over a time course up to 24 hours post dose to allow blood concentrations of drug to be measured by UPLC-MS/MS."}, "[2]": {"target": "human Z A1AT (Homo sapiens, UniProt P01009, E366K)", "sequence (P01009 25-418 E366K)": "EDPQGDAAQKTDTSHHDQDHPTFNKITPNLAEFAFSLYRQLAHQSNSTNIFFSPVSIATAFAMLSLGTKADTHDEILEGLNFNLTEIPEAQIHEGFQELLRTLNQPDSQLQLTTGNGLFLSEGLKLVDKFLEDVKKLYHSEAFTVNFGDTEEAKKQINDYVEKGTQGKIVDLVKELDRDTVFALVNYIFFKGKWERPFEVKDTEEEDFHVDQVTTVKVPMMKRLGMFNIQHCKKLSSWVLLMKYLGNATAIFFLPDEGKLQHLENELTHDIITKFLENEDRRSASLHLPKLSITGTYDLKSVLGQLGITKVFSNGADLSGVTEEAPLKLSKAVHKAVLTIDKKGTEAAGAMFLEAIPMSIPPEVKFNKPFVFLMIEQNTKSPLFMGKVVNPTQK", "experiment": "Trypsin complex formation by human Z A1AT purified from plasma of treated huZ mice (Western blot)", "format": "biochemical, huZ mouse", "parameters": "from tissue; host or cells: huZ (PiZZ) transgenic mice, line Z11.03, C57Bl/6 background; made in liver, measured in plasma", "conditions": "Z A1AT purified from plasma of huZ mice treated at 200 mg/kg twice a day by oral gavage for 10 days", "procedure": "The aim of the experiment was to purify human Z A1AT from three HuZ mice which had been treated with compound N,N-dimethyl-4-((6-oxopyrimidin-1(6H)-yl)methyl)benzamide (22.1e, 24.1a, 24.1b), then test the activity of the A1AT by reaction with increasing amounts of trypsin. Reaction of A1AT with the trypsin was analysed by western blot, probing with an anti-human A1AT antibody. A control plasma from a wild type mouse treated with the same compound (15.5b) was also included in the study.\nMice were treated with N,N-dimethyl-4-((6-oxopyrimidin-[…]-yl)methyl)benzamide at 200 mg/kg twice a day by oral gavage for 10 consecutive days. Mice had access to food (standard mouse chow, SAFE diets) and water ad libitum. On study day 10, each mouse was dosed 3.5-4.5 hours prior to terminal procedures. […]\n100 μl of mouse plasma was diluted to 300 μl with 20 mM Tris, 150 mM NaCl, 5 mM EDTA, pH 7.4 (reaction and wash buffer) prior to purification. […] Residual A1AT in the plasma and plasma supernatant was quantified using a human serpinA1 ELISA (Human Serpin A1/α1-antitrypsin duo set ELISA, R& D Systems, DY1268) to confirm depletion of human A1AT. The concentration of the eluted fractions were also measured. The amount of eluted A1AT was determined by measuring by A280 using an extinction coefficient of 0.45. […]"}, "[3]": {"test_system": "TK6 cells", "experiment": "In vitro micronucleus assay", "format": "cell-based", "parameters": "relative increase in cell count (RICC): dose or concentration left out as unconfirmed", "conditions": "for relative increase in cell count (RICC): vs concurrent negative control", "from_the_text": "The purpose of the in vitro micronucleus assay is to assess the ability of the test item to cause chromosome or spindle damage, or to interfere with the cell cycle, in ways which lead to the formation of micronuclei in the cytoplasm of TK6 cells. Chromosome defects are recognised as being the basis of a number of human genetic diseases. Micronuclei (MN) are the result of chromosome fragments or whole chromosomes remaining in the cytoplasm and not being incorporated into the nuclei of newly formed cells. These arise from damage to chromosomes leading to acentric fragments which cannot attach to the mitotic spindle; damage to the spindle apparatus preventing a chromosome from attaching to it or other interference with cell division. Assays were performed in the presence and absence of an exogenous mammalian oxidative metabolising system (S-9 mix, a liver post-mitochondrial fraction derived from the livers of Aroclor 1254 treated rats), to mimic mammalian metabolism. Cells were exposed to the test item for 3 hours and sampled 44 hours after the beginning of treatment. As a number of chemicals have been reported as only exerting positive effects following prolonged treatment, a continuous treatment of 27 hours in the absence of S-9 mix was also included. This was equivalent to 1.5 to 2.0 times the average generation time of cultured cells used in the assay. The test methodology was based on established procedures for in vitro micronucleus testing.\nN,N-dimethyl-4-((6-oxopyrimidin-1(6H)-yl)methyl)benzamide was tested up to the regulatory maximum dose level of 1 mM […] in all treatments."}},
  "data": [
    {"smiles": "CN(C)C(=O)c1ccc(Cn2cnccc2=O)cc1", "note": "[N,N-dimethyl-4-((6-oxopyrimidin-1(6H)-yl)methyl)benzamide]", "values": [
      {"measurement": "half-life", "setting": "[1]; iv 2 mg/kg or oral 10 mg/kg, read-out: Half-life in blood (t1/2)", "value": 55, "unit": "min"},
      {"measurement": "clearance", "setting": "[1]; iv 2 mg/kg or oral 10 mg/kg, read-out: Observed clearance", "value": 10.6, "unit": "mL/min/kg"},
      {"measurement": "Vd", "setting": "[1]; iv 2 mg/kg or oral 10 mg/kg, read-out: Volume of distribution (Vz)", "value": 0.84, "unit": "L/kg"},
      {"measurement": "bioavailability", "setting": "[1]; oral 10 mg/kg vs iv 2 mg/kg, read-out: Oral Bioavailability (F)", "value": 104, "unit": "%"},
      {"measurement": "Cmax", "setting": "[1]; oral 10 mg/kg, blood", "value": 5330, "unit": "ng/mL"},
      {"measurement": "AUC(0-inf)", "setting": "[1]; oral 10 mg/kg, blood, read-out: Oral AUCINF", "value": 16500, "unit": "ng·h/mL"},
      {"measurement": "activity of eluted human Z A1AT (complex formation with trypsin)", "setting": "[2]", "value": "native and fully active"},
      {"measurement": "relative increase in cell count (RICC)", "setting": "[3]; absence of S-9 mix, 3 hour treatment", "value": 98, "unit": "%"},
      {"measurement": "relative increase in cell count (RICC)", "setting": "[3]; absence of S-9 mix, 27 hour treatment", "value": 74, "unit": "%"},
      {"measurement": "relative increase in cell count (RICC)", "setting": "[3]; presence of S-9 mix, 3 hour treatment", "value": 105, "unit": "%"},
      {"measurement": "clastogenicity / aneugenicity", "setting": "[3]; presence or absence of S 9 mix", "value": "neither clastogenic nor aneugenic"},
      {"measurement": "cytotoxicity", "setting": "[3]; up to 1 mM, 27 hour treatment only", "value": "only slight cytotoxicity"},
      {"measurement": "percentage MN (% MN)", "setting": "[3]; with S-9 mix 3 hour, without S-9 mix 3 hour or 27 hour", "value": "no statistically significant increases"}
    ]}
  ]
}
